Data published in US9040727B2, “Histone deacetylase inhibitor of benzamides and use thereof” (Shanghai Institute of Pharmaceutical Industry, priority 2011, dated 2015).
Read-outs that look alike come from different tables or passages of the source.

Columns and labels:
HDAC1 = HDAC1 (Homo sapiens (Human), UniProt Q13547); experiment: In vitro inhibitory activity towards HDAC1 (HDAC Inhibitor Drug Screening Kit); assay type: biochemical; settings: for inhibition at 1 µM: compound at 1 μM; for inhibition at 10 µM: compound at 10 μM; for inhibitory activity against HDAC1 compared with MS-275 (by IC50): comparison with MS-275
Method: (1) The compounds to be tested were each individually prepared as 10 μM and 1 μM solutions and their inhibitory activities towards HDAC1 at these concentrations were tested.
(§1) Each dilution sample was placed in two wells and the enzyme inhibition IC50 of the compound was tested.

HDACs = experiment: In vitro inhibition of HDACs (HDAC Inhibitor Drug Screening Kit); assay type: biochemical; settings: for inhibitory activity on HDACs compared with MS-275 (by IC50): comparison with MS-275
Method: The test was conducted according to the instructions in the HDAC Inhibitor Drug Screening Kit (Biovision/Catalog #50051, BPS).
as §1

[1] = system: K562 human chronic myelogenous leukemia cells; experiment: In vitro anti-proliferative effect, CCK-8 method; assay type: cell-based
Method: (§2) The inhibitory activities of the compounds towards Hut78 T lymphocytic leukemia cells, Jurkat E6-1 human T-cell lymphoma, A549 human lung cancer cells, K562 human chronic myelogenous leukemia cells, Hep3B2.1-7 human liver cancer cells, MDA-MB-435s human breast cancer cells, Colo320 human rectal cancer cell line, and PC-3 human prostate cancer were determined. The inhibition percentages as represented by IC50 values were obtained through CCK-8 method.

[2] = system: Hut78 T lymphocytic leukemia cells; experiment: In vitro anti-proliferative effect, CCK-8 method; assay type: cell-based
Method: as §2

[3] = system: Hep3B2.1-7 human liver cancer cells; experiment: In vitro anti-proliferative effect, CCK-8 method; assay type: cell-based; settings: Hep3B
Method: as §2

[4] = system: Jurkat E6-1 human T-cell lymphoma; experiment: In vitro anti-proliferative effect, CCK-8 method; assay type: cell-based
Method: as §2

[5] = system: A549 human lung cancer cells; experiment: In vitro anti-proliferative effect, CCK-8 method; assay type: cell-based
Method: as §2

[6] = system: multiple strains of tumor cells; experiment: In vitro inhibition of proliferation of tumor cell strains (overall comparison); assay type: cell-based; settings: comparison with MS-275
Method: as §2

[7] = system: PC-3 human prostate cancer; experiment: In vitro anti-proliferative effect, CCK-8 method; assay type: cell-based
Method: as §2

[8] = system: Colo320 human rectal cancer cell line; experiment: In vitro anti-proliferative effect, CCK-8 method; assay type: cell-based
Method: as §2

[9] = system: MDA-MB-435s human breast cancer cells; experiment: In vitro anti-proliferative effect, CCK-8 method; assay type: cell-based
Method: as §2

[10] = Preliminary pharmacokinetic experiment; settings: in vivo, rat
hERG potassium channel = hERG potassium channel (Homo sapiens (Human), UniProt Q12809); experiment: Effects on hERG potassium channel; assay type: cell-based
Sequence of hERG potassium channel (Q12809 whole entry): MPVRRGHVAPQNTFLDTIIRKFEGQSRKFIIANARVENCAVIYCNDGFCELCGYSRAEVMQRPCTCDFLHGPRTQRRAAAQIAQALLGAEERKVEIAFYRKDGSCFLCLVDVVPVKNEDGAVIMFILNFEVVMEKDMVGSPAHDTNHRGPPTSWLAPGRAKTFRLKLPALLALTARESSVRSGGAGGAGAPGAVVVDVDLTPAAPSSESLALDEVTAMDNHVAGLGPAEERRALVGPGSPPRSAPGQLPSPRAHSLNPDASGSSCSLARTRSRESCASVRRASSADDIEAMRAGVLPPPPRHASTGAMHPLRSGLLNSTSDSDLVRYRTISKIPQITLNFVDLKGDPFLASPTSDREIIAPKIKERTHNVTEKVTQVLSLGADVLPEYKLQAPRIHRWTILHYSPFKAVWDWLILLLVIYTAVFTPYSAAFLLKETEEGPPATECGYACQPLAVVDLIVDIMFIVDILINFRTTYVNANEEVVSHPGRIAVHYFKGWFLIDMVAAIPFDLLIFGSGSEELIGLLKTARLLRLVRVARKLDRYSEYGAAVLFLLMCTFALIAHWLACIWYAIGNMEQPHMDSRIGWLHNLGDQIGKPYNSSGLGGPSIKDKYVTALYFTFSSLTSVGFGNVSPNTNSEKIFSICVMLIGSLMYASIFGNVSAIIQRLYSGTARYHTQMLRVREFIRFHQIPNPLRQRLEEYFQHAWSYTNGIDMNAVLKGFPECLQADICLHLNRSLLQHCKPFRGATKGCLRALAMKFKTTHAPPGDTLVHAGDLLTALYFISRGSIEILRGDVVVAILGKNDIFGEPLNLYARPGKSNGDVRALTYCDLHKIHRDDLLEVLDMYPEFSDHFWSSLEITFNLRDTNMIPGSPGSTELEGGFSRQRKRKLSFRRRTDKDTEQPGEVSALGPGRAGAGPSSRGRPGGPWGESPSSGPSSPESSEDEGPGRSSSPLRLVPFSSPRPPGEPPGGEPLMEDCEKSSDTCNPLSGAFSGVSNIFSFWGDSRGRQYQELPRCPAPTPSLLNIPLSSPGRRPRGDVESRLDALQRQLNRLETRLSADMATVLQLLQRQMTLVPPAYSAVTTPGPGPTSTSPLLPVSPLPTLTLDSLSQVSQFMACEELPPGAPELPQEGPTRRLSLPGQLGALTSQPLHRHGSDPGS

Sequence of HDAC1 (Q13547 whole entry): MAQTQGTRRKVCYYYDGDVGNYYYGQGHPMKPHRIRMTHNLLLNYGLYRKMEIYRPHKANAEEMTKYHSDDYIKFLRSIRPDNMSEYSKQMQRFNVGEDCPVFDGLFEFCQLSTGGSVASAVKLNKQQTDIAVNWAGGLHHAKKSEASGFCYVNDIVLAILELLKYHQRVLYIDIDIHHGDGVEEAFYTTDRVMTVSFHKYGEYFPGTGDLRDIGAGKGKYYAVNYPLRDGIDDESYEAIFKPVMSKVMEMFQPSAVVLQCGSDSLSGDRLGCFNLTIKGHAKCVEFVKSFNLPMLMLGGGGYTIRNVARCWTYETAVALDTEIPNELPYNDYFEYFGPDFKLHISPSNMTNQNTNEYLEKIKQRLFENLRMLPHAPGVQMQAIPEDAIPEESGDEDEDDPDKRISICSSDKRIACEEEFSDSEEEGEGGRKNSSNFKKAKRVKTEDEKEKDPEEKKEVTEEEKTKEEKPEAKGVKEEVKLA

| SMILES | IC50 (HDAC1) | inhibition at 1 µM (HDAC1) | inhibition at 10 µM (HDAC1) | IC50 (HDACs) | IC50 ([2]; Homo sapiens, HuT78) | inhibitory activity against HDAC1 compared with MS-275 (by IC50) (HDAC1) | other results |
| --- | --- | --- | --- | --- | --- | --- | --- |
| Nc1ccc(-c2ccco2)cc1NC(=O)c1ccc(CNC(=O)c2nc3ccccc3[nH]2)cc1 [Compound V-14] |  | 74.8% | 87.2% |  | 0.356 µM | better inhibitory activities against HDAC1 as compared with MS-275 | IC50 [1]: 0.437 µM; IC50 ([3]; Homo sapiens): 1.52 µM; IC50 ([4]; Homo sapiens): 0.458 µM; IC50 ([5]; Homo sapiens): 3.14 µM |
| Nc1ccc(-c2ccccc2)cc1NC(=O)c1ccc(CNC(=O)c2cc3ccccc3o2)cc1 [Compound V-11] |  | 38.1% | 58.5% |  |  |  |  |
| Nc1ccc(F)cc1NC(=O)c1ccc(CNC(=O)c2cc3ccccc3[nH]2)cc1 [Compound V-7] |  | 41.4% | 53.3% |  |  |  |  |
| Nc1ccccc1NC(=O)c1ccc(CNC(=O)c2nc3ccccc3[nH]2)cc1 [Compound V-12] |  | 8.7% | 28.4% |  |  |  |  |
| Nc1ccc(F)cc1NC(=O)c1ccc(CNC(=O)c2ccc3ccccc3c2)cc1 [Compound V-2] |  | 28.8% | 46.9% |  |  |  |  |
| Nc1ccc(-c2cccs2)cc1NC(=O)c1ccc(CNC(=O)c2cc3ccccc3o2)cc1 [Compound V-10] |  | 58.9% | 75.4% |  |  |  |  |
| COc1ccc2cc(C(=O)NCc3ccc(C(=O)Nc4ccccc4N)cc3)ccc2c1 [Compound V-3] |  | 33.3% | 60% |  |  |  |  |
| Nc1ccccc1NC(=O)c1ccc(CNC(=O)c2ccc3ccccc3c2)cc1 [Compound V-1] |  | 4.49% | 15.2% |  |  |  |  |
| Nc1ccc(F)cc1NC(=O)c1ccc(CNC(=O)c2nc3ccccc3[nH]2)cc1 [Compound V-13] |  | 13.4% | 23.9% |  |  |  |  |
| Nc1cnccc1NC(=O)c1ccc(CNC(=O)c2cccc3ccccc23)cc1 [Compound V-16] | 0.276 µM | 62.5% | 85.1% | 3.11 µM | 1.79 µM | better inhibitory activities against HDAC1 as compared with MS-275 | inhibitory activity on HDACs compared with MS-275 (by IC50) (HDACs): better inhibitory activities than MS-275; IC50 [1]: 6.08 µM; IC50 ([3]; Homo sapiens): 3.36 µM; IC50 ([8]; Homo sapiens, COLO 320): 86 µM |
| Nc1cnccc1NC(=O)c1ccc(CNC(=O)c2cc3ccccc3[nH]2)cc1 [Compound V-6] | 0.344 µM | 68.5% | 74.5% | 7.79 µM | 0.0088 µM | better inhibitory activities against HDAC1 as compared with MS-275 | inhibition rate for tumor cells compared with MS-275 [6]: higher inhibition rate for multiple strains of tumor cells as compared with MS-275; IC50 [1]: 2.09 µM; IC50 ([3]; Homo sapiens): 3.07 µM; IC50 ([8]; Homo sapiens, COLO 320): 3.13 µM; IC50 ([4]; Homo sapiens): 0.128 µM; IC50 ([7]; Homo sapiens): 0.37 µM; IC50 ([5]; Homo sapiens): 1.25 µM |
| Nc1ccccc1NC(=O)c1ccc(CNC(=O)c2cc3ccccc3o2)cc1 [Compound V-8] |  | 62.2% | 79.5% |  |  |  |  |
| COc1ccc2cc(C(=O)NCc3ccc(C(=O)Nc4cc(F)ccc4N)cc3)ccc2c1 [Compound V-4] |  | 24.7% | 44.8% |  |  |  |  |
| Nc1ccccc1NC(=O)c1ccc(CNC(=O)c2cc3ccccc3[nH]2)cc1 [Compound V-5] |  | 59.6% | 81.1% |  | 0.0194 µM | better inhibitory activities against HDAC1 as compared with MS-275 | half-life ([10]; iv, 2 mg/kg, i.v., read-out: Intravenous half-life (converted)): 1.27 h; bioavailability ([10]; oral): 7.84%; half-life ([10]; oral, read-out: Oral half-life (converted)): 3.7 h; IC50 [1]: 1.31 µM; IC50 ([3]; Homo sapiens): 3.46 µM; IC50 ([8]; Homo sapiens, COLO 320): 2.45 µM; IC50 ([4]; Homo sapiens): 0.179 µM; IC50 ([7]; Homo sapiens): 0.242 µM; IC50 ([5]; Homo sapiens): 2.64 µM; inhibition at 10 µM (hERG potassium channel; human, hERG potassium current, 10 μM, read-out: Maximum inhibition percentage at 10 μM): 11.5 ± 0.8%; IC50 (hERG potassium channel; read-out: Half inhibition concentration for the effect on hERG potassium current IC50): > 10 µM |
| Nc1ccccc1NC(=O)c1ccc(CNC(=O)c2cccc3ccccc23)cc1 [Compound V-15] |  | 29.8% | 67.5% |  | 2.78 µM | better inhibitory activities against HDAC1 as compared with MS-275 | inhibitory activity on HDACs compared with MS-275 (by IC50) (HDACs): better inhibitory activities than MS-275; IC50 [1]: 2.88 µM; IC50 ([3]; Homo sapiens): 2.76 µM; IC50 ([8]; Homo sapiens, COLO 320): 9.34 µM; IC50 ([4]; Homo sapiens): 1.37 µM; IC50 ([7]; Homo sapiens): 2.63 µM |

Continued, in another order:

| IC50 (HDAC1) | inhibition at 1 µM (HDAC1) | inhibition at 10 µM (HDAC1) | IC50 (HDACs) | IC50 ([2]; Homo sapiens, HuT78) | SMILES | inhibitory activity against HDAC1 compared with MS-275 (by IC50) (HDAC1) | other results |
| --- | --- | --- | --- | --- | --- | --- | --- |
| 0.998 µM | 67.1% | 78.8% | 6.89 µM |  | Nc1ccc2[nH]c(C(=O)NCc3ccc(C(=O)Nc4ccccc4N)cc3)cc2c1 [Compound V-23] |  |  |
| 0.414 µM | 73.1% | 84% | 1.14 µM | 1.19 µM | Cc1ccc2[nH]c(C(=O)NCc3ccc(C(=O)Nc4ccccc4N)cc3)cc2c1 [Compound V-19] | better inhibitory activities against HDAC1 as compared with MS-275 | inhibitory activity on HDACs compared with MS-275 (by IC50) (HDACs): better inhibitory activities than MS-275; inhibition rate for tumor cells compared with MS-275 [6]: higher inhibition rate for multiple strains of tumor cells as compared with MS-275; IC50 [1]: 1.91 µM; IC50 ([3]; Homo sapiens): 10.2 µM; IC50 ([7]; Homo sapiens): 0.191 µM |
|  | 36.8% | 59.5% |  |  | CNc1ccc2[nH]c(C(=O)NCc3ccc(C(=O)Nc4ccccc4N)cc3)cc2c1 [Compound V-22] |  |  |
|  | 22.1% | 49.5% |  |  | Nc1ccccc1NC(=O)c1ccc(CNC(=O)c2cc3cc(F)ccc3[nH]2)cc1 [Compound V-18] |  |  |
| 0.276 µM | 47.6% | 80.2% | 1.22 µM | 0.0558 µM | Nc1ccc(F)cc1NC(=O)c1ccc(CNC(=O)c2cc3ccccc3s2)cc1 [Compound V-27] | better inhibitory activities against HDAC1 as compared with MS-275 | inhibition rate for tumor cells compared with MS-275 [6]: higher inhibition rate for multiple strains of tumor cells as compared with MS-275; IC50 [1]: 2.81 µM; IC50 ([3]; Homo sapiens): 16 µM; IC50 ([8]; Homo sapiens, COLO 320): 27 µM; IC50 ([4]; Homo sapiens): 1.39 µM; IC50 ([7]; Homo sapiens): 3.57 µM; IC50 ([5]; Homo sapiens): 5.09 µM |
| 0.731 µM | 53.5% | 77.4% | 1.31 µM |  | Nc1cnccc1NC(=O)c1ccc(CNC(=O)c2cc3ccccc3s2)cc1 [Compound V-28] |  |  |
| 1.58 µM | 59.1% | 67.4% | 1.72 µM |  | Nc1ccccc1NC(=O)c1ccc(CNC(=O)c2cc3ccccc3s2)cc1 [Compound V-24] |  | inhibitory activity on HDACs compared with MS-275 (by IC50) (HDACs): better inhibitory activities than MS-275 |
| 0.301 µM | 53.9% | 76.2% | 1.02 µM | 0.877 µM | CC(=O)Nc1ccc2[nH]c(C(=O)NCc3ccc(C(=O)Nc4ccccc4N)cc3)cc2c1 [Compound V-25] | better inhibitory activities against HDAC1 as compared with MS-275 | inhibition rate for tumor cells compared with MS-275 [6]: higher inhibition rate for multiple strains of tumor cells as compared with MS-275; IC50 ([7]; Homo sapiens): 0.069 µM; IC50 ([5]; Homo sapiens): 0.295 µM |
| 0.735 µM | 54% | 76.2% | 0.92 µM |  | Nc1ccc(F)cc1NC(=O)c1ccc(CNC(=O)c2cccc3ccccc23)cc1 [Compound V-17] |  | inhibitory activity on HDACs compared with MS-275 (by IC50) (HDACs): better inhibitory activities than MS-275 |
| 0.509 µM | 59.3% | 70.8% | 1.37 µM | 0.231 µM | CC(=O)c1ccc2[nH]c(C(=O)NCc3ccc(C(=O)Nc4ccccc4N)cc3)cc2c1 [Compound V-26] | better inhibitory activities against HDAC1 as compared with MS-275 | IC50 [1]: 19.9 µM; IC50 ([3]; Homo sapiens): 52.2 µM; IC50 ([8]; Homo sapiens, COLO 320): 88.4 µM; IC50 ([4]; Homo sapiens): 12.4 µM; IC50 ([7]; Homo sapiens): 12.2 µM; IC50 ([5]; Homo sapiens): 29.9 µM |
| 0.758 µM | 34.4% | 68.8% | 9.4 µM |  | COc1c(C(=O)NCc2ccc(C(=O)Nc3ccccc3N)cc2)oc2ccccc12 [Compound V-21] |  |  |
|  |  |  | 3.52 µM |  | Nc1ccccc1NC(=O)c1ccc(CNC(=O)OCc2cccnc2)cc1 [MS-275, reference compound] |  | IC50 ([2]; Hut78): 0.528 µM; IC50 [3]: 6.82 µM; IC50 [8]: 0.522 µM; IC50 [9]: 2.71 µM; IC50 [4]: 0.561 µM; IC50 [7]: 0.502 µM; IC50 [5]: 2.28 µM |
|  | 39.4% | 72.2% |  |  | Nc1ccccc1NC(=O)c1ccc(CNC(=O)c2cc3cc(C(F)(F)F)ccc3[nH]2)cc1 [Compound V-20] |  |  |
